Source: patent publication US20240335462A1, “SULFUR/PHOSPHORUS-CONTAINING ARYL COMPOUND AND APPLICATION THEREOF” (MEDSHINE DISCOVERY INC., priority 2021, published 2024)
Counter-ions that a name gives are not always drawn. Like-named read-outs stand apart in the source and are kept apart here. Marks after values point to notes of the source that are not given here. Values belong to the compound of their own block, whether it stands above or below them.

Legend:
[1] = biological target: Ba/F3-FL-TYK2-E957D cells (Homo sapiens, UniProt P29597, E957D, cells depend on it); assay: Proliferation of Ba/F3-FL-TYK2-E957D cells (CellTiter-Glo); format: cell-based, mouse; conditions: 72 hours, read-out: Half maximal inhibitory concentration IC50 for cells Ba/F3-FL-TYK2-E957D
Sequence of Ba/F3-FL-TYK2-E957D cells (P29597 whole entry E957D): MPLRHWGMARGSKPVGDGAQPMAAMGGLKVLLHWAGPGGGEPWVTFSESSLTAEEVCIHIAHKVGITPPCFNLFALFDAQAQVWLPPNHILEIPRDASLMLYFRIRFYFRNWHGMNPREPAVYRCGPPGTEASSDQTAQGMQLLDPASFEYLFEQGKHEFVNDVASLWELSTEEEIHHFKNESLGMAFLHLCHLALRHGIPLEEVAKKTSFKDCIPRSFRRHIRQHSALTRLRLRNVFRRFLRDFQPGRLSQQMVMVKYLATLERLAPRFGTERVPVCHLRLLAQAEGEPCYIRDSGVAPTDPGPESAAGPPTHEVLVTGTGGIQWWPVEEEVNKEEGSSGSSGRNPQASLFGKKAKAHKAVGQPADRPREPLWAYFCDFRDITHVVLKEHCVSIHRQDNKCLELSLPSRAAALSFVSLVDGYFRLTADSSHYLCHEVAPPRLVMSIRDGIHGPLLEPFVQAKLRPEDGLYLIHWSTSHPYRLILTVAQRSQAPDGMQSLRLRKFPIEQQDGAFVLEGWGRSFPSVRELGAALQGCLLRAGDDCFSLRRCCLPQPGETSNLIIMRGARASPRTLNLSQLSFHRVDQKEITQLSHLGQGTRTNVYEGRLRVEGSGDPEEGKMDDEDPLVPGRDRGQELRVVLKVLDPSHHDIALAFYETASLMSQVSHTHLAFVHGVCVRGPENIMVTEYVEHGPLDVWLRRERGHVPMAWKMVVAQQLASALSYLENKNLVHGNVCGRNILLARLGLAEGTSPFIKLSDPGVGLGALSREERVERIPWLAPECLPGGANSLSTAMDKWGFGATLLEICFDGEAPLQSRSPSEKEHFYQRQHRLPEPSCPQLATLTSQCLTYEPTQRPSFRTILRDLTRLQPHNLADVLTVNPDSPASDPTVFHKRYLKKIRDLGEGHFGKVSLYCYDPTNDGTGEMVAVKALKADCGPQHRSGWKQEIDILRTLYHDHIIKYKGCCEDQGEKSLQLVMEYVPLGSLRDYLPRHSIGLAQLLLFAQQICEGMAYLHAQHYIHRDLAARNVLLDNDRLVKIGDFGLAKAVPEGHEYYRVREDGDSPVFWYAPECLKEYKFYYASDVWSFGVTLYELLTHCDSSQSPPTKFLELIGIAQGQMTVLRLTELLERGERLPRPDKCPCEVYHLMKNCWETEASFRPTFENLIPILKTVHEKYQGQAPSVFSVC
From the text: Adenosine triphosphate (ATP) serves as a universal energy carrier in various life processes, representing the smallest unit of energy storage and transfer. The CellTiter-Glo™ Luminescent Cell Viability Assay Kit utilizes luciferase as a detection agent. During the luminescent process, luciferase requires the participation of ATP. By adding CellTiter-Glo™ reagent to the cell culture medium and measuring the luminescence, the light signal was directly proportional to the amount of ATP in the system, and ATP was positively correlated with the number of viable cells. Therefore, cell proliferation can be detected by measuring ATP content using the CellTiter-Glo kit. In this test, the cell lines used were Ba/F3-FL-TYK2-E957D and Ba/F3-TEL-TYK2. Ba/F3-FL-TYK2-E957D cells can stably express the exogenously introduced human TYK2-E957D gene, and the TYK2-E957D gene sequence contains both JH1 and JH2 domains. On the other hand, Ba/F3-TEL-TYK2 cells can stably express the exogenously introduced human TEL-TYK2 gene, and the TEL-TYK2 gene sequence contains only the JH1 domain of TYK2.
The cell lines were cultured in an incubator at 37° C. with 5% CO2. Regular passaging was performed, and cells in the logarithmic growth phase were selected for plating.
• a) The test compounds were prepared into a 10 mM solution with DMSO, and then diluted to 0.3 or 1 mM with DMSO. • b) Preparation of 1000× compound storage plate (tube): The compounds were 3-fold serially diluted from the highest concentration to the lowest concentration, creating 9 different concentrations. • c) Preparation of 20× compound working solution: 49 μL of cell culture medium was added to a flat-bottomed 96-well transparent drug plate. From the 1000× compound storage plate, 1 μL of the compound was pipetted into the cell culture medium in the 96-well transparent drug plate. In the solvent control, 1 μL of DMSO was added. After the compound or DMSO was added, the mixture was homogenized using a multi-channel pipette.
• a) Cells were stained with trypan blue and viable cells were counted to ensure a cell viability of 90% or more. • b) 95 μL of cell suspension (2000 cells/well) was added to each well of the compound assay cell plate, and cell-free culture medium containing 0.1% DMSO was added to the Min control wells. • c) Administration in the compound assay cell plate: 5 μL of 20× compound working solution was added to the cell culture plate. 5 μL of DMSO-cell culture medium mixture was added to the Max control wells. The final concentration of DMSO was 0.1%. • d) The culture plate was then incubated in an incubator at 37° C. with 5% CO2 for 72 hours.
The following steps were conducted in accordance with the instructions of the Promega CellTiter-Glo Luminescent Cell Viability Assay Kit (Promega-G7573). • a) CellTiter-Glo buffer was thawed and brought to room temperature. • b) CellTiter-Glo substrate was also brought to room temperature. • c) CellTiter-Glo buffer was added to a bottle of CellTiter-Glo substrate to dissolve the substrate, thereby preparing CellTiter-Glo working solution. • d) The mixture was slowly vortexed and shaken to be fully dissolved. • e) The cell culture plate was removed and allowed to equilibrate to room temperature for 10 minutes. • f) 50 μL (equal to half the volume of cell culture medium in each well) of CellTiter-Glo working solution was added to each well. • g) The culture plate was shaken on an orbital shaker for 2 minutes to induce cell lysis. • h) The plate was then left at room temperature for 10 minutes to stabilize the luminescent signal. • i) The luminescent signal was detected using a SpectraMax Paradigm plate reader.
Data analysis was conducted using GraphPad Prism 5.0 software. Nonlinear S-curve regression was employed to fit the data and generate dose-response curves. From these curves, the IC50 values were calculated.

[2] = Pharmacokinetic testing in mice; format: in vivo, male CD-1 mice; conditions: mouse; for Vd / AUC(0-t) / half-life / C0 / bioavailability / Cmax / Tmax: male, CD-1, plasma; for Vd: read-out: Apparent volume of distribution Vd; for AUC(0-t): read-out: Area under the curve AUC0-last; for half-life: read-out: Half-life T1/2 (converted); for C0: read-out: Starting concentration C0; for bioavailability: read-out: Bioavailability F %; for Cmax: read-out: Peak concentration Cmax; for Tmax: read-out: Time to peak concentration Tmax
Description: The objective was to study the pharmacokinetic behavior of the compound of the present disclosure in mice and evaluate the pharmacokinetic characteristics, using male CD-1 mice aged 7 to 9 weeks as test animals. The drug concentrations in plasma at different time points after a single intravenous injection (IV) and oral administration (PO) of the compound were determined using LC/MS/MS.
The pharmacokinetic characteristics of the compound in rodents following intravenous injection and oral administration were tested using a standard protocol. Test animals were fasted for 10 to 14 hours before administration and allowed to feed 4 hours post-administration. The compound was prepared into a clear solution with the appropriate solvent for both IV (intravenous injection) and PO (oral gavage) administration. The solvent was 10% DMSO+10% solutol+80% (10% HP-β-CD aqueous solution). Whole blood samples were collected within 24 hours, centrifuged at 6000 g for 3 minutes, and the supernatant was separated to obtain plasma samples. Protein precipitation was performed by adding four times the volume of acetonitrile solution containing internal standard to the plasma samples. After centrifugation, the supernatant was added with an equal volume of water and then centrifuged before being subjected to LC-MS/MS analysis for quantifying plasma drug concentration. Pharmacokinetic parameters such as peak concentration, time to peak concentration, clearance, half-life, area under the drug-time curve, and bioavailability were calculated.

[3] = tested on: IL-23-induced psoriasis-like skin lesions; assay: Mouse psoriasis-like model induced by IL-23; format: in vivo, C57BL/6 mice; design: Total score for epidermal hyperplasia of ear pinnae / AUC of total score for epidermal hyperplasia of ear pinnae / Pathological score: Degree of keratinization / Pathological score: Epidermal thickness / Pathological score: Dermal thickness / Pathological score: Inflammatory cell infiltration / Comprehensive pathological score: scale not given here
From the text: The purpose of this experiment was to evaluate the prophylactic and therapeutic effect of the test substance on IL-23-induced psoriasis-like skin lesions in mice by intradermal injection of IL-23 into the ear pinnae in a psoriasis-like skin lesion model.
Female C57BL/6 mice of qualified body weight were randomly divided into groups, with 6 mice per group. The grouping and administration information was as follows. The groups were: blank control group, model group, positive control Ustekinumab (5 mg/kg) group, WX-011A hydrochloride (30, 50 mg/kg) group, and WX-020 sulfate (30, 50 mg/kg) group. Except for the blank control group, the animals in the other groups received an intradermal injection of IL-23 (3 μg/10 μL/mouse/day, QD) in the right ear for 8 consecutive days (Day 0 to Day 7). The blank control group received an intradermal injection of an equal volume of saline solution (10 μL/mouse/day, QD) in the right ear for 8 consecutive days (Day 0 to Day 7). Concurrent with model induction, the solvent or test drug was orally administered twice a day (Bid) at 6-hour intervals for 8 consecutive days (Day 0 to Day 7). The positive control was subcutaneously injected on Day 0 and Day 3 (a total of 2 doses). During the administration period, the body weight of the animals was monitored every two days. On Day 0, Day 2, Day 4, Day 6 (all before IL-23 injection), and Day 8, the thickness of the right ear of the mice was measured, and the appearance of the ear pinnae was observed and scored.
The compounds were all prepared into a clear solution with 10% DMSO+[…] as a solvent for PO (oral gavage) administration. Administration volume parameters: 10 mL/kg based on the body weight of the mice.
After grouping, IL-23 (3 μg/10 μL/mouse/day, QD) was injected intradermally into the right ears of the mice for 8 consecutive days (Day 0 to Day 7). Measurements of the thickness of the right ear and observations and scoring of the appearance of the ear pinnae were performed on Day 0, Day 2, Day 4, Day 6 (all before IL-23 injection), and Day 8. At the end of the experiment (Day 8), the left ear tissues of the mice from groups G4 to G10 (3 animals per group at each time point) were collected. The right ear, which had been modeled, was excised, an 8 mm ear punch was taken along the edge of the pinna, and its weight was measured. The excised right ear tissues were fixed in formalin for histopathological examination (H&E staining).
Concurrent with model induction, corresponding drug treatment was given for administration. Except for the positive control drug (Ustekinumab), which was subcutaneously injected on Day 0 and Day 3 (once a day), control and test drugs for each dose group were orally administered by gavage twice a day at 6-hour intervals for 8 consecutive days (Day 0 to Day 7).
The pathological scoring of mouse ear tissue sections was conducted according to the criteria in Table 33.
The experimental data are represented as Mean±SD; statistical analysis was performed using IBM SPSS Statistics 21, with p<0.05 considered to indicate a statistically significant difference between the two groups. The effect of the test substance on the thickness of mouse ears in the IL-23 induced mouse pinna epidermal hyperplasia model is shown in Table 34. The effect of the test substance on the total score and AUC for […] induced mouse pinna epidermal hyperplasia is shown in Table 35.

[4] = 5 mg/kg SC on Day 0 and Day 3, Day 0
[5] = 5 mg/kg SC on Day 0 and Day 3, Day 2
[6] = 5 mg/kg SC on Day 0 and Day 3, Day 4
[7] = 5 mg/kg SC on Day 0 and Day 3, Day 6
[8] = 5 mg/kg SC on Day 0 and Day 3, Day 8
[9] = 5 mg/kg SC, right ear H&E sections

Compound: [2H]C([2H])([2H])NC(=O)c1cnc(NC(=O)C2CC2)cc1Nc1cccc(-c2ncc(S(=O)(=O)N3CCCC3)cn2)c1OC [Hydrochloride of WX-006]
GI50 [1]: 10.6 nM

Compound: [2H]C([2H])([2H])NC(=O)c1cnc(NC(=O)C2CC2)cc1Nc1cccc(-c2ccc(S(C)(=O)=O)cc2)c1OC [Hydrochloride of WX-007]
GI50 [1]: 9.5 nM

Compound: [2H]C([2H])([2H])NC(=O)c1nnc(NC(=O)C2CC2)cc1Nc1cccc(-c2ccc(P(C)(C)=O)cc2)c1OC [Hydrochloride of WX-008]
GI50 [1]: 16 nM

Compound: CNC(=O)c1nnc(NC(=O)C2CC2)cc1Nc1cccc(-c2ncc(S(=N)(=O)C(C)C)cn2)c1OC (centres unmarked) [WX-011]
Vd ([2]; IV 1 mg/kg): 0.7 L/kg
AUC(0-t) ([2]; IV 1 mg/kg): 4.79 µM·h
half-life ([2]; IV 1 mg/kg): 3.2 h
C0 ([2]; IV 1 mg/kg): 5.42 µM
AUC(0-t) ([2]; PO 10 mg/kg): 25 µM·h
bioavailability ([2]; PO 10 mg/kg): 52%
Cmax ([2]; PO 10 mg/kg): 10.2 µM
Tmax ([2]; PO 10 mg/kg): 0.5 h
Apparent clearance Cl ([2]; IV 1 mg/kg): 6.6 mL/min/kg

Compound: CNC(=O)c1nnc(NC(=O)C2CC2)cc1Nc1cccc(-c2ccc(S(=N)(=O)C(C)C)cn2)c1OC (centres unmarked) [WX-012]
Vd ([2]; IV 1 mg/kg): 2.9 L/kg
AUC(0-t) ([2]; IV 1 mg/kg): 2.46 µM·h
half-life ([2]; IV 1 mg/kg): 4.4 h
C0 ([2]; IV 1 mg/kg): 2.75 µM
AUC(0-t) ([2]; PO 10 mg/kg): 16.7 µM·h
bioavailability ([2]; PO 10 mg/kg): 68%
Cmax ([2]; PO 10 mg/kg): 12.4 µM
Tmax ([2]; PO 10 mg/kg): 0.3 h
Apparent clearance Cl ([2]; IV 1 mg/kg): 12.8 mL/min/kg

Compound: Ustekinumab: positive control Ustekinumab (anti-IL-12/IL-23), Selleck, subcutaneously injected [reference compound]
Ear thickness (mm) [3, 4]: 0.196 mm
Total score for epidermal hyperplasia of ear pinnae [3, 4]: 0.00
AUC of total score for epidermal hyperplasia of ear pinnae ([3]; 5 mg/kg SC on Day 0 and Day 3, Day 0 to Day 8): 2.83**
Ear thickness (mm) [3, 5]: 0.277* mm
Total score for epidermal hyperplasia of ear pinnae [3, 5]: 0.00
Ear thickness (mm) [3, 6]: 0.288** mm
Total score for epidermal hyperplasia of ear pinnae [3, 6]: 0.33*
Ear thickness (mm) [3, 7]: 0.316** mm
Total score for epidermal hyperplasia of ear pinnae [3, 7]: 0.67**
Ear thickness (mm) [3, 8]: 0.329* mm
Total score for epidermal hyperplasia of ear pinnae [3, 8]: 0.83**
Comprehensive pathological score [3, 9]: 3.50**
Pathological score: Degree of keratinization [3, 9]: 0.50**
Pathological score: Dermal thickness [3, 9]: 0.67
Pathological score: Epidermal thickness [3, 9]: 1.17**
Pathological score: Inflammatory cell infiltration [3, 9]: 1.17**

Results, then the compound that gave them:

GI50 [1]: 8.3 nM
Compound: CNC(=O)c1nnc(NC(=O)C2CC2)cc1Nc1cccc(-c2ccc(S(=N)(=O)C(C)C)nn2)c1OC (single isomer, unassigned) [WX-036A]

GI50 [1]: 17.3 nM
Compound: CNC(=O)c1nnc(NC(=O)C2CC2)cc1Nc1cccc(-c2ccc(S(=N)(=O)C(C)C)nn2)c1OC (single isomer, unassigned) [WX-036B]

GI50 [1]: 15 nM
Compound: CNC(=O)c1nnc(NC(=O)C2CC2)cc1Nc1cccc(-c2ccc(S(=N)(=O)C(C)C)nc2)c1OC (single isomer, unassigned) [WX-037A]

GI50 [1]: 17 nM
Compound: CNC(=O)c1nnc(NC(=O)C2CC2)cc1Nc1cccc(-c2ccc(S(=N)(=O)C(C)C)nc2)c1OC (single isomer, unassigned) [WX-037B]

GI50 [1]: 12.6 nM
Compound: [2H]C([2H])([2H])NC(=O)c1cnc(NC(=O)C2CC2)cc1Nc1cccc(-c2ccc(S(C)(=O)=NC)cc2)c1OC (centres unmarked) [Hydrochloride of WX-010]

GI50 [1]: 13 nM
Compound: CCN=S(=O)(c1cnc(-c2cccc(Nc3cc(NC(=O)C4CC4)nnc3C(=O)NC)c2OC)nc1)C(C)C (centres unmarked) [Hydrochloride of WX-015]

GI50 [1]: 11.7 nM
Compound: CCN=S(=O)(c1ccc(-c2cccc(Nc3cc(NC(=O)C4CC4)nnc3C(=O)NC)c2OC)nc1)C(C)C (centres unmarked) [Hydrochloride of WX-016]
